Data published in patent publication US20230357099A1, “PYRAZOLO [3,4-B] PYRIDINE-4-CARBOXAMIDE NITRIFICATION INHIBITOR” (EUROCHEM ANTWERPTEN, priority 2020, published 2023).

Key:
[1] = tested on: Nitrososphaera viennensis; experiment: Nitrification inhibition assay on Nitrososphaera viennensis (nitrite, Griess); format: cell-based, Nitrososphaera viennensis EN76T; details: for activity at 2.5 µM: Nitrososphaera viennensis, 2.5 µM compound, structural variants outside formula (I), read-out: Relative nitrification (%) by Nitrososphaera viennensis treated with 2.5 µM compound
Method in brief: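 N. viennensis EN76T cultures in FWM (pH 7.5, NH4Cl-supplemented), 5× concentrated, treated with compounds at 2.5 µM final (0.25% DMSO) and incubated 24 h at 42 °C. Nitrite measured by Griess absorbance at 540 nm against a standard curve. Relative nitrification normalized between DMSO (no compound) and 100 µM PTIO controls.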

[2] = tested on: ABIL (ammonia-binding liquid inoculum), nitrifying microbial enrichment containing both AOA and AOB; experiment: Nitrification inhibition assay on ABIL (ammonium consumption); format: cell-based; details: for activity at 10 µM: 10 µM compound, structural variants outside formula (I), read-out: Relative nitrification (%) by ABIL treated with 10 µM compound
Aliivibrio fischeri = format: cell-based
Experimental: Furthermore, a representative subset was tested on Aliivibrio fischeri growth (formerly known as Vibrio fischeri), a bacterium used in the Microtox assay to test toxic substances in different substrates such as (drinking) water, air, soils and sediments.
Two of these variants were also tested on Aliivibrio fischeri to test possible toxicity.

Row | inhibition in the ABIL assay ([2]; PTIO at 33 µM) | Growth of Aliivibrio fischeri, relative to control without compound (%) (Aliivibrio fischeri) | SMILES | activity at 2.5 µM [1] [%] | activity at 10 µM [2] [%] | inhibition in the N. viennensis assay ([1]; PTIO at 25 µM)
1 |  |  | O=C(Nc1cccc(/C=C/c2ccccn2)c1)c1n[nH]c2ccccc12 [Example 145] | 96 | 100 | 
2 |  |  | O=C(NCCCCc1ccccc1)c1n[nH]c2ccccc12 [Example 146] | 96 | 100 | 
3 |  |  | O=C(NCc1ccc(F)cc1C(F)(F)F)c1cccc2cn[nH]c12 [Example 147] | 92 | 100 | 
4 |  |  | Cc1ccccc1OCCN(C)C(=O)c1n[nH]c2ccccc12 [Example 148] | 100 | 100 | 
5 |  |  | O=S(=O)(Nc1cccc2cn[nH]c12)N1CCCCC1 [Example 149] | 100 | 100 | 
6 |  |  | CCN(CCC#N)Cn1nc(Cl)c2ccccc21 [Example 150] | 100 | 100 | 
7 |  |  | CCCc1nnc(NCc2cccc3cn[nH]c23)o1 [Example 151] | 94 | 100 | 
8 |  |  | COC(=O)C1(CNCc2cccc3cn[nH]c23)CCOCC1 [Example 152] | 98 | 100 | 
9 |  |  | O=S(=O)(Cc1ccccc1F)Nc1ccc2[nH]ncc2c1 [Example 153] | 100 | 100 | 
10 |  |  | COc1ccc(C(O)CNCc2cccc3cn[nH]c23)cc1 (stereo not shown) [Example 154] | 99 | 100 | 
11 |  |  | CCCC(O)CNCc1cccc2cn[nH]c12 (stereo not shown) [Example 155] | 100 | 100 | 
12 |  |  | CC1CCCCN1C(=O)c1n[nH]c2ccccc12 (stereo not shown) [Example 156] | 100 | 100 | 
13 |  |  | CC1(C)CN(C(=O)c2n[nH]c3ccccc23)CC[S+]1[O-] (stereo not shown) [Example 157] | 94 | 100 | 
14 |  |  | FC(F)(F)c1c[nH]c(C2CCN(Cc3cccc4cn[nH]c34)CC2)n1 [Example 158] | 100 | 100 | 
15 |  |  | CN(C(=O)Nc1ccc2c(cnn2C(F)F)c1)C1CCSC1 (stereo not shown) [Example 159] | 91 | 100 | 
16 |  |  | COc1ccc(N2CC(C(=O)Nc3ccc4[nH]ncc4c3)CC2=O)cc1 (stereo not shown) [Example 160] | 100 | 100 | 
17 |  |  | O=S(=O)(Nc1ccc2cn[nH]c2c1)c1cccc2ccccc12 [Example 161] | 100 | 100 | 
18 |  |  | O=C(Nc1ccc2[nH]ncc2c1)C1(c2ccc(F)cc2)CC1 [Example 162] | 100 | 100 | 
19 |  |  | CCOc1ccc(CN(CC)C(=O)c2n[nH]c3ccccc23)cc1OC [Example 163] | 99 | 100 | 
20 |  |  | COCCN1CCN(Cc2cccc3cn[nH]c23)CC1=O [Example 164] | 100 | 100 | 
21 |  |  | O=C(NC1CC1)c1cccc(NC(=O)c2n[nH]c3ccccc23)c1 [Example 165] | 100 | 100 | 
22 | does not show inhibition anymore |  | CC1(C)N([O])C(c2ccccc2)=[N+]([O-])C1(C)C [PTIO, 2-phenyl-4,4,5,5-tetramethylimidazoline-1-oxyl 3-oxide] |  |  | does not show inhibition anymore
23 |  | 40 | CC(C)n1ncc2cc(CNc3ccc4[nH]ncc4c3)cnc21 [drawing 170] |  |  | 
24 |  | 3 | N#Cc1nn(CN2CCSCC2)c2ccc(Cl)cc12 [drawing 171] |  |  | 
